{"source": "patent US20240417359A1", "about": "“PRECURSORS OF PHENOLIC FRAGRANT COMPOUNDS” (GIVAUDAN SA, priority 2021, published 2024)", "key": {"[1]": {"assay": "Washtest with liquid detergent and sensory evaluation of fabric by expert panel", "conditions": "Table 3; for odour intensity, 1 day: dry fabric 1 day; for odour intensity, 1 day / odour intensity, 4 days / odour intensity, wet: scale 0 to 5; for odour intensity, 4 days: dry fabric 4 days; for odour intensity, wet / odour on dry fabric: heavy duty liquid detergent washtest; for odour intensity, wet: wet fabric", "protocol": "The wet and line-dried fabric (1 and 4 days) was assessed by a panel of 4-6 experts with regard to odour intensity and quality. The odour intensity was recorded on an intensity scale of 0 (odourless) to 5 (extremely strong).\nThe odour intensity was recorded on an intensity scale of 0 (odorless) to 5 (extremely strong).\nHeavy duty liquid detergent samples were prepared and used in washtests and subsequent sensory evaluation of the washed and dried fabric as described in Example 60a and c. The odour intensity was recorded on an intensity scale of 0 (odourless) to 5 (extremely strong)."}, "[2]": {"assay": "Odour description on paper blotter", "conditions": "1% solution in EtOH on paper blotter, 24 h"}, "[3]": {"assay": "Application in shampoo base: sensory evaluation of washed hair swatches by expert panel", "parameters": "species or system human", "conditions": "Table 4; for odour intensity, wet: 0.2% by weight in shampoo base, wet hair swatch, scale 0 (odourless) to 5 (extremely strong); for odour intensity, 1 day: dried hair swatch 1 day; for odour intensity, 1 day / odour intensity, 3 days: scale 0 to 5; for odour intensity, 3 days: dried hair swatch 3 days", "protocol": "Odour-neutral human hair swatches were wetted with warm tap water and lathered delicately with 2 mL of the above hair shampoo samples for 30 sec by hand wearing gloves. The lathered hair swatches were left in a plastic bowl for 2 min, then rinsed under running tap water for 20 sec. After removing excess water by squeezing the hair swatches between two fingers, they were left to dry in open air. The wet and dried hair swatches (1 and 3 days) were assessed by a panel of 4-6 experts with regard to odour intensity and quality. The odour intensity was recorded on an intensity scale of 0 (odourless) to 5 (extremely strong)."}}}
{"smiles": "C=CCc1ccc(OC(CC=C)CCCCCCCCC)c(OC)c1", "note": "(centres unmarked) [4-allyl-2-methoxy-1-(tridec-1-en-4-yloxy)benzene]", "values": [{"measurement": "odour intensity, 1 day", "setting": "[1]", "result": 2.1}, {"measurement": "odour intensity, 4 days", "setting": "[1]", "result": 2.7}, {"measurement": "odour intensity, wet", "setting": "[1]", "result": 2.1}]}
{"smiles": "C=CCC(CC/C=C\\CC)Oc1ccc(C=O)cc1OCC", "note": "(centres unmarked) [Example 12, (Z)-4-(deca-1,7-dien-4-yloxy)-3-ethoxybenzaldehyde]", "values": [{"measurement": "Odour description", "setting": "[2]", "result": "powdery (vanilla)"}, {"measurement": "odour intensity, 1 day", "setting": "[1]", "result": 3.0}, {"measurement": "odour intensity, 4 days", "setting": "[1]", "result": 3.7}, {"measurement": "odour intensity, wet", "setting": "[1]", "result": 0.4}]}
{"smiles": "C=CCC(CCCCCCCCC)Oc1ccc(CCC(C)=O)cc1", "note": "(centres unmarked) [Example 36, 4-(4-(tridec-1-en-4-yloxy)phenyl)butan-2-one]", "values": [{"measurement": "Odour description", "setting": "[2]", "result": "fruity, juicy, raspberry, aldehydic, green, metallic"}, {"measurement": "odour intensity, wet", "setting": "[3]", "result": 2.3}, {"measurement": "odour intensity, 1 day", "setting": "[3]", "result": 1.9}, {"measurement": "odour intensity, 3 days", "setting": "[3]", "result": 1.6}]}
{"smiles": "C=CCC(CCCCCCCCCC)Oc1ccc(C=O)cc1OC", "note": "(centres unmarked) [Example 38, 3-methoxy-4-(tetradec-1-en-4-yloxy)benzaldehyde]", "values": [{"measurement": "Odour description", "setting": "[2]", "result": "powdery, vanilla, creamy, aldehydic, mandarin, madeleine"}, {"measurement": "odour intensity, 1 day", "setting": "[1]", "result": 3.0}, {"measurement": "odour intensity, 4 days", "setting": "[1]", "result": 3.2}, {"measurement": "odour on dry fabric", "setting": "[1]", "result": "madeleine"}, {"measurement": "odour intensity, wet", "setting": "[1]", "result": 2.2}]}
{"smiles": "CC(=O)CCc1ccc(OCCC=C(C)CCc2ccccc2)cc1", "note": "[Example 52, 4-(4-((4-methyl-6-phenylhex-3-en-1-yl)oxy)phenyl)butan-2-one]", "values": [{"measurement": "Odour description", "setting": "[2]", "result": "sweet, crystal sugar, fruity, raspberry"}, {"measurement": "odour intensity, 1 day", "setting": "[1]", "result": 2.9}, {"measurement": "odour intensity, 4 days", "setting": "[1]", "result": 3.3}, {"measurement": "odour on dry fabric", "setting": "[1]", "result": "raspberry, sweet"}, {"measurement": "odour intensity, wet", "setting": "[1]", "result": 1.6}]}
{"smiles": "COc1ccc(CCC(C)=CCCOc2ccc(CCC(C)=O)cc2)cc1", "note": "[Example 55, 4-(4-((6-(4-methoxyphenyl)-4-methylhex-3-en-1-yl)oxy)phenyl)butan-2-one]", "values": [{"measurement": "Odour description", "setting": "[2]", "result": "sweet, fruity, raspberry"}, {"measurement": "odour intensity, wet", "setting": "[3]", "result": 1.1}, {"measurement": "odour intensity, 1 day", "setting": "[3]", "result": 2.8}, {"measurement": "odour intensity, 3 days", "setting": "[3]", "result": 3.0}]}
{"smiles": "CCOc1cc(C=O)ccc1OCCC=C(C)CCC=C(C)C", "note": "[Example 60, 4-((4,8-dimethylnona-3,7-dien-1-yl)oxy)-3-ethoxybenzaldehyde]", "values": [{"measurement": "Odour description", "setting": "[2]", "result": "gourmand (vanilla, rhum, vanilla bean) sweet (vanilla)"}]}
{"smiles": "C=CCc1ccc(OCCC=C(C)CCC=C(C)C)c(OC)c1", "note": "[Example 61, 4-allyl-1-((4,8-dimethylnona-3,7-dien-1-yl)oxy)-2-methoxybenzene]", "values": [{"measurement": "Odour description", "setting": "[2]", "result": "spicy"}]}
{"smiles": "COC(=O)c1c(C)cc(OCC/C=C(\\C)CCC=C(C)C)c(C)c1O", "note": "[Example 62, methyl (E)-4-((4,8-dimethylnona-3,7-dien-1-yl)oxy)-2-hydroxy-3,6-dimethylbenzoate]", "values": [{"measurement": "Odour description", "setting": "[2]", "result": "powdery (mossy)"}]}
{"smiles": "CCOc1cc(C=O)ccc1OC(C)C(C)/C=C/C1CC=C(C)C1(C)C", "note": "(centres unmarked) [Example 63, (E)-3-ethoxy-4-((3-methyl-5-(2,2,3-trimethylcyclopent-3-en-1-yl)pent-4-en-2-yl)oxy)benzaldehyde]", "values": [{"measurement": "Odour description", "setting": "[2]", "result": "woody, sandalwoody, hay"}]}
{"smiles": "CCCCC/C=C\\CCOc1ccc(C=O)cc1OCC", "note": "[Example 64, (Z)-3-ethoxy-4-(non-3-en-1-yloxy)benzaldehyde]", "values": [{"measurement": "Odour description", "setting": "[2]", "result": "vanilla (powdery, spicy, creamy)"}]}
{"smiles": "CCOc1cc(C)ccc1OCCC=C(C)CCC=C(C)CCC=C(C)C", "note": "[Example 65, 2-ethoxy-4-methyl-1-((4,8,12-trimethyltrideca-3,7,11-trien-1-yl)oxy)benzene]", "values": [{"measurement": "Odour description", "setting": "[2]", "result": "phenolic (medicinal, ultravanil, balsamic vanilla bean, cough syrup)"}]}
{"smiles": "COC(=O)c1c(C)cc(OCCC=C(C)CCC=C(C)CCC=C(C)C)c(C)c1O", "note": "[Example 66, methyl 2-hydroxy-3,6-dimethyl-4-((4,8,12-trimethyltrideca-3,7,11-trien-1-yl)oxy)benzoate]", "values": [{"measurement": "Odour description", "setting": "[2]", "result": "powdery mossy (evernyl)"}]}
{"smiles": "C=CCC(Oc1ccc(C=O)cc1OCC)c1ccccc1", "note": "(centres unmarked) [Example 68, 3-ethoxy-4-((1-phenylbut-3-en-1-yl)oxy)benzaldehyde]", "values": [{"measurement": "Odour description", "setting": "[2]", "result": "powdery (vanilla), green"}]}
{"smiles": "C=CCC(CC/C=C\\CC)Oc1cc(C)c(C(=O)OC)c(O)c1C", "note": "(centres unmarked) [Example 69, methyl (Z)-4-(deca-1,7-dien-4-yloxy)-2-hydroxy-3,6-dimethylbenzoate]", "values": [{"measurement": "Odour description", "setting": "[2]", "result": "powdery green marine (evernyl)"}, {"measurement": "odour intensity, 1 day", "setting": "[1]", "result": 1.9}, {"measurement": "odour intensity, 4 days", "setting": "[1]", "result": 2.5}, {"measurement": "odour on dry fabric", "setting": "[1]", "result": "mossy, woody"}, {"measurement": "odour intensity, wet", "setting": "[1]", "result": 0.5}]}
{"smiles": "CC/C=C\\CCCC/C=C/CCOc1ccc(C=O)cc1OCC", "note": "[Example 76, 4-(((3E,9Z)-dodeca-3,9-dien-1-yl)oxy)-3-ethoxybenzaldehyde]", "values": [{"measurement": "Odour description", "setting": "[2]", "result": "green, melon, powdery, vanilla"}]}
{"smiles": "CC/C=C\\CCCC/C=C/CCOc1cc(C)c(C(=O)OC)c(O)c1C", "note": "[Example 77, methyl 4-(((3E,9Z)-dodeca-3,9-dien-1-yl)oxy)-2-hydroxy-3,6-dimethylbenzoate]", "values": [{"measurement": "Odour description", "setting": "[2]", "result": "powdery, oakmoss"}]}
{"smiles": "C=CCC(CCC=CCC)Oc1ccc(C=O)cc1OCC", "note": "(centres unmarked) [Example 78, 4-(deca-1,7-dien-4-yloxy)-3-ethoxybenzaldehyde]", "values": [{"measurement": "Odour description", "setting": "[2]", "result": "powdery, vanilla"}]}
{"smiles": "CCOc1cc(C=O)ccc1OCCC=C(C)CCc1ccc2c(c1)OCO2", "note": "[Example 79, 4-((6-(benzo[d][1,3]dioxol-5-yl)-4-methylhex-3-en-1-yl)oxy)-3-ethoxybenzaldehyde]", "values": [{"measurement": "Odour description", "setting": "[2]", "result": "sweet powdery, creamy, vanilla, vanitrope"}]}
{"smiles": "CC(=O)CCc1ccc(OCCC=C(C)CCc2ccc3c(c2)OCO3)cc1", "note": "[Example 80, 4-(4-((6-(benzo[d][1,3]dioxol-5-yl)-4-methylhex-3-en-1-yl)oxy)phenyl)butan-2-one]", "values": [{"measurement": "Odour description", "setting": "[2]", "result": "fruity, raspberry, grenadine, berryflor, fresh, transparent"}]}
{"smiles": "CC(=O)CCc1ccc(OCCC=C(C)CCC2=C(C)CCCC2(C)C)cc1", "note": "[Example 82, 4-(4-((4-methyl-6-(2,6,6-trimethylcyclohex-1-en-1-yl)hex-3-en-1-yl)oxy)phenyl)butan-2-one]", "values": [{"measurement": "Odour description", "setting": "[2]", "result": "fruity, sweet, powdery, raspberry ketone"}]}
{"smiles": "CCOc1cc(C=O)ccc1OCCC=CC(C)CCC=C(C)C", "note": "(centres unmarked) [Example 84, 4-((5,9-dimethyldeca-3,8-dien-1-yl)oxy)-3-ethoxybenzaldehyde]", "values": [{"measurement": "Odour description", "setting": "[2]", "result": "powdery, vanilla, chocolate milk, slightly fresh, fatty, watery, melon"}, {"measurement": "odour intensity, wet", "setting": "[3]", "result": 0.7}, {"measurement": "odour intensity, 1 day", "setting": "[3]", "result": 2.7}, {"measurement": "odour intensity, 3 days", "setting": "[3]", "result": 3.6}]}
{"smiles": "CCOc1cc(C=O)ccc1OCCC=CCCc1ccccc1", "note": "[Example 85, 3-ethoxy-4-((6-phenylhex-3-en-1-yl)oxy)benzaldehyde]", "values": [{"measurement": "Odour description", "setting": "[2]", "result": "powdery, vanilla, creamy, balsamic, cinnamic"}]}
{"smiles": "CCOc1cc(C=O)ccc1OCCC=CCCc1ccc(CC(C)C)cc1", "note": "[Example 86, 3-ethoxy-4-((6-(4-isobutylphenyl)hex-3-en-1-yl)oxy)benzaldehyde]", "values": [{"measurement": "Odour description", "setting": "[2]", "result": "powdery, vanilla, creamy, floral, muguet"}]}
{"smiles": "CCOc1cc(C=O)ccc1OCCC=C(C)C1CCCC1", "note": "[Example 88, 4-((4-cyclopentylpent-3-en-1-yl)oxy)-3-ethoxybenzaldehyde]", "values": [{"measurement": "Odour description", "setting": "[2]", "result": "powdery, creamy, vanilla"}]}
{"smiles": "CCCCCCC(C)=CCCOc1ccc(C=O)cc1OCC", "note": "[Example 89, 3-ethoxy-4-((4-methyldec-3-en-1-yl)oxy)benzaldehyde]", "values": [{"measurement": "Odour description", "setting": "[2]", "result": "powdery, vanilla, creamy"}]}
{"smiles": "C=CCC(CCCCCCCCC)Oc1ccc(C=O)cc1OCC", "note": "(centres unmarked) [Example 91, 3-ethoxy-4-(tridec-1-en-4-yloxy)benzaldehyde]", "values": [{"measurement": "Odour description", "setting": "[2]", "result": "powdery, vanilla, aldehydic, fruity, mandarin"}]}
